ChEMBL document CHEMBL5360655, “Design, Synthesis, and Biological Evaluation of Novel P2X7 Receptor Antagonists for the Treatment of Septic Acute Kidney Injury” (J Med Chem, 2023)
Active and inactive are the calls of the source. The calls are words filed in the database; no cut-off is given here.

Key:
[1] = target: T1, P2X purinoceptor 7 (Homo sapiens, UniProt Q99572); assay: Antagonist activity at human P2X7 receptor
T1 sequence (Q99572 whole entry): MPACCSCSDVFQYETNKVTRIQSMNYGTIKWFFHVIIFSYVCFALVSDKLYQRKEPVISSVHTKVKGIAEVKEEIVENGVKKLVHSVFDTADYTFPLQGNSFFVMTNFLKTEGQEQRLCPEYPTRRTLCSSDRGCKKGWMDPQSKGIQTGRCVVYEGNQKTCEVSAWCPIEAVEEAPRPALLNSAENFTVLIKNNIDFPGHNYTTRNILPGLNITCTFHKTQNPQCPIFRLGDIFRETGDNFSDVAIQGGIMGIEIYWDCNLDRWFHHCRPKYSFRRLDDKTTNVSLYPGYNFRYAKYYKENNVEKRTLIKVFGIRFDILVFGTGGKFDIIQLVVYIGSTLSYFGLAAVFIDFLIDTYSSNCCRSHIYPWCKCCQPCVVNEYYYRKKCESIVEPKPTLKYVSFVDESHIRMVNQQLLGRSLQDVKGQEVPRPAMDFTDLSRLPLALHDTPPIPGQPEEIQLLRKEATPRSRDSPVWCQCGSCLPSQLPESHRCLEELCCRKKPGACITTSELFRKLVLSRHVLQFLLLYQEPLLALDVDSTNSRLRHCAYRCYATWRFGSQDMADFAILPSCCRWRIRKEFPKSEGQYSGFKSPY

[2] = target: T2, P2X purinoceptor 7 (Mus musculus, UniProt Q9Z1M0); assay: Antagonist activity at mouse P2X7 receptor
T2 sequence (Q9Z1M0 whole entry): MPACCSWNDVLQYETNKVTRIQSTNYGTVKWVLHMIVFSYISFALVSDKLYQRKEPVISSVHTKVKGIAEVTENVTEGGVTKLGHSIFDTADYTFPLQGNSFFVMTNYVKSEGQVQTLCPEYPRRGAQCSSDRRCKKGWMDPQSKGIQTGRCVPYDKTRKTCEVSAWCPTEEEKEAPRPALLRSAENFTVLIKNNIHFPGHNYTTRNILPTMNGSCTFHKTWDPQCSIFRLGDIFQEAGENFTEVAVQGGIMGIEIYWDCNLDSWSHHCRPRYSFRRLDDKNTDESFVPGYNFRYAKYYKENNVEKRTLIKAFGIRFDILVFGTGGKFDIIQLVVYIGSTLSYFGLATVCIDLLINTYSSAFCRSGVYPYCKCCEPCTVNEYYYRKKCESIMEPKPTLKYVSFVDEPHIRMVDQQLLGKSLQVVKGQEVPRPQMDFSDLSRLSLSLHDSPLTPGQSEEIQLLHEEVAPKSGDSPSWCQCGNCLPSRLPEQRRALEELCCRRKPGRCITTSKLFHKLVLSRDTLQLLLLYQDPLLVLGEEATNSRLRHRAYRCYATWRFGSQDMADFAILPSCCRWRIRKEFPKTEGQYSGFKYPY

[3] = target: T3, P2X purinoceptor 7 (Homo sapiens) (UniProt Q99572); assay: Antagonist activity at human P2X7 receptor expressed in HEK293 cells assessed as inhibition of ATP-induced receptor pore formation at 1 uM by propidium iodide dye uptake based fluorescence analysis; assay type: cell-based; details: filed as antagonist
T3 sequence (whole entry): T1 sequence (Q99572 whole entry)

[4] = target: T4, P2X purinoceptor 7 (Mus musculus) (UniProt Q9Z1M0); assay: Antagonist activity at mouse P2X7 receptor expressed in HEK293 cells assessed as inhibition of ATP-induced receptor pore formation at 1 uM by propidium iodide dye uptake based fluorescence analysis; assay type: cell-based; details: filed as antagonist
T4 sequence (whole entry): T2 sequence (Q9Z1M0 whole entry)

[5] = target: T3, P2X purinoceptor 7 (Homo sapiens); assay: Antagonist activity at human P2X7 receptor expressed in HEK293 cells assessed as inhibition of ATP-induced receptor pore formation at 200 nM by propidium iodide dye uptake based fluorescence analysis; assay type: cell-based
[6] = target: T4, P2X purinoceptor 7 (Mus musculus); assay: Antagonist activity at mouse P2X7 receptor expressed in HEK293 cells assessed as inhibition of ATP-induced receptor pore formation at 200 nM by propidium iodide dye uptake based fluorescence analysis; assay type: cell-based; details: filed as antagonist
[7] = target: T1, P2X purinoceptor 7; assay: Antagonist activity at human P2X7 receptor expressed in HEK293 cells assessed as inhibition of ATP-induced receptor pore formation by propidium iodide dye uptake based fluorescence analysis; assay type: cell-based
[8] = target: T2, P2X purinoceptor 7; assay: Antagonist activity at mouse P2X7 receptor expressed in HEK293 cells assessed as inhibition of ATP-induced receptor pore formation by propidium iodide dye uptake based fluorescence analysis; assay type: cell-based
[9] = Intrinsic clearance in human liver microsomes; assay type: ADME, Microsome; details: read-out: CLH
[10] = Half life in human liver microsomes; assay type: ADME, Microsome
[11] = Intrinsic clearance in mouse liver microsomes; assay type: ADME, Microsome; details: read-out: CLH
[12] = Half life in mouse liver microsomes; assay type: ADME, Microsome
[13] = tested on: HEK293; assay: Cytotoxicity against human HEK293 cells transfected with human P2X7 receptor assessed as effect on cell viability at 1 to 4 uM incubated for 2 hrs by CCK8 assay; assay type: toxicity, cell-based; details: hek293, 2 h, dose 1-4 µM
[14] = tested on: HEK293; assay: Cytotoxicity against human HEK293 cells transfected with mouse P2X7 receptor assessed as effect on cell viability at 1 to 4 uM incubated for 2 hrs by CCK8 assay; assay type: toxicity, cell-based; details: hek293, 2 h, dose 1-4 µM
[15] = target: T1, P2X purinoceptor 7; assay: Antagonist activity at P2X7 receptor in human THP-1 cells assessed as inhibition of ATP-induced IL-1beta secretion pretreated with LPS for 3 hrs followed by incubation with compound for 40 mins followed by treatment with ATP for 1 hr by ELISA; assay type: cell-based
[16] = tested on: THP-1; assay: Cytotoxicity against human THP-1 cells assessed as effect on cell viability at 1 to 4 uM incubated for 2 hrs by CCK8 assay; assay type: toxicity, cell-based; details: thp-1, 2 h, dose 1-4 µM
[17] = AUC(0 to t) in BALB/c mouse at 10 mg/kg, iv measured for 24 hrs by LC-MS/MS analysis; assay type: ADME, organism-based; parameters: time 24 hrs, dose 10 mg/kg, route iv; details: in vivo
[18] = AUC(0 to t) in BALB/c mouse at 10 mg/kg, po measured for 24 hrs by LC-MS/MS analysis; assay type: ADME, organism-based; parameters: time 24 hrs, dose 10 mg/kg, route po; details: in vivo
[19] = Clearance in BALB/c mouse at 10 mg/kg, iv measured for 24 hrs by LC-MS/MS analysis; assay type: ADME, organism-based; details: in vivo
[20] = Clearance in BALB/c mouse at 10 mg/kg, po measured for 24 hrs by LC-MS/MS analysis; assay type: ADME, organism-based; details: in vivo
[21] = Cmax in BALB/c mouse at 10 mg/kg, iv measured for 24 hrs by LC-MS/MS analysis; assay type: ADME, organism-based; parameters: time 24 hrs, dose 10 mg/kg, route iv; details: in vivo
[22] = Cmax in BALB/c mouse at 10 mg/kg, po measured for 24 hrs by LC-MS/MS analysis; assay type: ADME, organism-based; parameters: time 24 hrs, dose 10 mg/kg, route po; details: in vivo
[23] = Half life in BALB/c mouse at 10 mg/kg, iv measured for 24 hrs by LC-MS/MS analysis; assay type: ADME, organism-based; details: in vivo
[24] = Half life in BALB/c mouse at 10 mg/kg, po measured for 24 hrs by LC-MS/MS analysis; assay type: ADME, organism-based; details: in vivo
[25] = Tmax in BALB/c mouse at 10 mg/kg, iv measured for 24 hrs by LC-MS/MS analysis; assay type: ADME, organism-based; details: in vivo
[26] = Tmax in BALB/c mouse at 10 mg/kg, po measured for 24 hrs by LC-MS/MS analysis; assay type: ADME, organism-based; details: in vivo
[27] = Oral bioavailability in BALB/c mouse at 10 mg/kg measured for 24 hrs by LC-MS/MS analysis; assay type: ADME, organism-based; details: in vivo
[28] = AUC(0 to t) in BALB/c mouse at 10 mg/kg, ip measured for 24 hrs by LC-MS/MS analysis; assay type: ADME, organism-based; parameters: dose 10 mg/kg, time 24 hrs, route ip; details: in vivo
[29] = Clearance in BALB/c mouse at 10 mg/kg, ip measured for 24 hrs by LC-MS/MS analysis; assay type: ADME, organism-based; details: in vivo
[30] = Cmax in BALB/c mouse at 10 mg/kg, ip measured for 24 hrs by LC-MS/MS analysis; assay type: ADME, organism-based; parameters: dose 10 mg/kg, time 24 hrs, route ip; details: in vivo
[31] = Half life in BALB/c mouse at 10 mg/kg, ip measured for 24 hrs by LC-MS/MS analysis; assay type: ADME, organism-based; details: in vivo
[32] = Tmax in BALB/c mouse at 10 mg/kg, ip measured for 24 hrs by LC-MS/MS analysis; assay type: ADME, organism-based; details: in vivo
[33] = tested on: Mus musculus; assay: Reno-protective activity against LPS-induced acute kidney injury C57BL/6J mouse model assessed as decrease in serum […] level at 10 mg/kg, ip administered twice at 30 mins prior to LPS challenge and 8 hrs post-LPS challenge and measured at 16 hrs post-LPS challenge; assay type: functional, organism-based; details: time 16.5 hrs
[34] = tested on: Mus musculus; assay: Reno-protective activity against LPS-induced acute kidney injury C57BL/6J mouse model assessed as decrease in BUN level at 10 mg/kg, ip administered twice at 30 mins prior to LPS challenge and 8 hrs post-LPS challenge and measured at 16 hrs post-LPS challenge; assay type: functional, organism-based; details: time 16.5 hrs

## O=C1C=C(n2cc(CCCl)nn2)C(=O)c2c(O)cccc21
[1]
  IC50: 1100 nM
[2]
  IC50: 1500 nM

## CS(=O)(=O)c1ccc(-c2nc(C(=O)NCc3cn(-c4cc(Cl)ccn4)nn3)cs2)cc1
[3]
  inhibition: 68%
[4]
  inhibition: 99.5%
[5]; filed as antagonist
  inhibition: 42.1%
[6]
  inhibition: 105%
[7]
  IC50: 147 nM
[8]
  IC50: 36.2 nM
[9]
  CLint scaled: < 12 mL/min/kg
[10]
  half-life: > 2 h
[11]
  CLint scaled: < 12 mL/min/kg
[12]
  half-life: > 2 h
[13]
  Activity: Non-Toxic
[14]
  Activity: Non-Toxic
[15]
  IC50: 358 nM
[16]
  Activity: Non-Toxic
[17]
  AUC(0-t) at 24 h: 5080 ng·h/mL
[18]
  AUC(0-t) at 24 h: 4390 ng·h/mL
[19]
  clearance: 33.2 mL/min/kg
[20]
  CL/F: 40.8 mL/min/kg
[21]
  Cmax: 3040 ng/mL
[22]
  Cmax: 776 ng/mL
[23]
  half-life: 1.96 h
[24]
  half-life: 2.29 h
[25]
  Tmax: 0.08 h
[26]
  Tmax: 2 h
[27]
  bioavailability: 86.4%
[28]
  AUC(0-t) at 24 h: 9930 ng·h/mL
[29]
  CL/F: 16.9 mL/min/kg
[30]
  Cmax: 3650 ng/mL
[31]
  half-life: 3.94 h
[32]
  Tmax: 0.38 h
[33]
  Activity: Active
[34]
  Activity: Active

## CC1=C(C(c2ccc(Cl)cc2)n2cc(COCc3ccco3)nn2)C(=O)c2ccccc2C1=O (stereo not given)
[1]
  IC50: 103 nM

## CS(=O)(=O)c1ccc(-c2ncc(C(=O)NCc3cn(-c4cc(Cl)ccn4)nn3)s2)cc1
[3]
  inhibition: 53.6%
[4]
  inhibition: 100%
[5]
  inhibition: 38.2%
[6]
  inhibition: 101%
[7]
  IC50: 297 nM
[8]
  IC50: 26.9 nM
[9]
  CLint scaled: < 12 mL/min/kg
[10]
  half-life: > 2 h
[11]
  CLint scaled: < 12 mL/min/kg
[12]
  half-life: > 2 h
[13]
  Activity: Non-Toxic
[14]
  Activity: Non-Toxic
[15]
  IC50: 635 nM
[16]
  Activity: Non-Toxic
[17]
  AUC(0-t) at 24 h: 77900 ng·h/mL
[18]
  AUC(0-t) at 24 h: 29100 ng·h/mL
[19]
  clearance: 2 mL/min/kg
[20]
  CL/F: 5.83 mL/min/kg
[21]
  Cmax: 25800 ng/mL
[22]
  Cmax: 6500 ng/mL
[23]
  half-life: 4.94 h
[24]
  half-life: 2.1 h
[25]
  Tmax: 0.08 h
[26]
  Tmax: 2 h
[27]
  bioavailability: 37.3%
[28]
  AUC(0-t) at 24 h: 12000 ng·h/mL
[29]
  CL/F: 13.5 mL/min/kg
[30]
  Cmax: 1470 ng/mL
[31]
  half-life: 3.98 h
[32]
  Tmax: 4.67 h
[33]
  Activity: Active
[34]
  Activity: Active

## CS(=O)(=O)c1ccc(-c2ncc(C(=O)NCc3cn(-c4cc(Br)ccn4)nn3)s2)cc1
[3]
  inhibition: 100%
[4]
  inhibition: 114%
[5]; filed as antagonist
  inhibition: 56.9%
[6]
  inhibition: 114%
[7]
  IC50: 166 nM
[8]
  IC50: 12.2 nM
[9]
  CLint scaled: < 12 mL/min/kg
[10]
  half-life: > 2 h
[11]
  CLint scaled: < 12 mL/min/kg
[12]
  half-life: > 2 h
[13]
  Activity: Non-Toxic
[14]
  Activity: Non-Toxic
[15]
  IC50: 289 nM
[16]
  Activity: Non-Toxic
[17]
  AUC(0-t) at 24 h: 40900 ng·h/mL
[18]
  AUC(0-t) at 24 h: 7140 ng·h/mL
[19]
  clearance: 3.67 mL/min/kg
[20]
  CL/F: 26.3 mL/min/kg
[21]
  Cmax: 3410 ng/mL
[22]
  Cmax: 1010 ng/mL
[23]
  half-life: 7.87 h
[24]
  half-life: 2.66 h
[25]
  Tmax: 1.39 h
[26]
  Tmax: 2 h
[27]
  bioavailability: 17.5%
[28]
  AUC(0-t) at 24 h: 24400 ng·h/mL
[29]
  CL/F: 6.83 mL/min/kg
[30]
  Cmax: 3660 ng/mL
[31]
  half-life: 8.17 h
[32]
  Tmax: 4 h
[33]
  Activity: Active
[34]
  Activity: Active

## O=C(NCc1ccc(Cl)cc1Cl)C1CCC(=O)N1c1ccoc1 (stereo not given)
[1]
  IC50: 200 nM
